Source: US20240376163A1, “PEPTIDE FOR INHIBITING CALCINEURIN AND USE THEREOF” (Seoul National University R&DB Foundation, priority 2023, published 2024)

How the values were obtained:
calcineurin = test: Calcineurin cellular activity assay in Jurkat T cells; format: cell-based; conditions: Jurkat T cells expressing peptide or treated with FK506
Description: Calcineurin phosphatase activity was measured in vitro using the Calcineurin phosphatase assay kit (BML-AK804, Enzo Life Sciences, Farmingdale, NY, USA). GST or GST-tagged peptides were cultured with CNA for 30 min at room temperature and then performed according to the manufacturer's instructions. Jurkat T cells were transiently transfected with CAG-HA-mCherry-peptide by electroporation endogenous calcineurin phosphatase activity. After 24 hours, the Jurkat T cells were pretreated with FK506 for 1 hour before activation with PMA and ionomycin. Thereafter, the cells were washed with TBS buffer (20 mM Tris, pH 7.2, 150 mM NaCl), resuspended with lysis buffer in a calcineurin cell activity assay kit (BML-AK816, Enzo Life Sciences), and stored on ice for 30 min. Lysate supernatants were collected by gel filtration using Desaltting Column Resin included in the kit, free phosphate was removed, and performed according to the manufacturer's instructions.

Jurkat T cells = test: Real-time quantitative PCR of T-cell activation genes in Jurkat T cells; format: cell-based
Description: Jurkat T cells were collected by QIAzol Lysis Reagent (Qiagen) to extract total RNA. cDNA was reverse transcribed from the isolated RNA using AMV Reverse Transcriptase and random hexamers. Real-time quantitative PCR for each cDNA was performed using TB Green® Premix Ex Taq™ (TaKaRa, Kusatsu, Japan) in the CFX Connect Real-time PCR Detection System (Bio-Rad, Hercules, CA, USA), and normalized to expression of 18S rRNA or GAPDH.

CNAβ2 = target: T1, CNAβ2 (Homo sapiens, UniProt P16298); test: Mammalian two-hybrid assay (GAL4 DBD-peptides, VP16 AD-CNAβ2, pG5-luc) in HEK293T cells; format: cell-based; conditions: HEK293T
T1 construct: expressed in transfected cells; host or cells: HEK293T
T1 sequence (P63098 2-170 partner limits assumed, other chains not shown): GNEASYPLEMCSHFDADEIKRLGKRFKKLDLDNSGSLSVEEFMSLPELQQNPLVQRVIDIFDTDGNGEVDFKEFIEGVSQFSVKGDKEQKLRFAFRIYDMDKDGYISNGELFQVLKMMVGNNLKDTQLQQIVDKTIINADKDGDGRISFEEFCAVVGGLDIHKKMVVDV
Description: (§1) To measure the transcriptional activity of NFAT, Jurkat T cells were cotransfected with GST-tagged peptides and NFAT-luc by electroporation. After 24 hours, the cells were pretreated with 0.5 μM FK506 for 1 hour and then treated with 40 nM PMA and 1 μM ionomycin for 8 hours. For mammalian two-hybrid assay, HEK293T cells were cotransfected with GAL4 DBD-tagged CABIN1, VIVIT, chimeric, and substituted peptides, VP16 activation domain-tagged CNAβ2, and pG5-luc (a luciferase reporter plasmid containing the GAL4 reaction promoter) for 24 hours. Harvested cells were lysed with luciferase assay lysis buffer (17 mM KH2PO4, 183 mM K2HPO4, pH 7.8, 0.2% [v/v] Triton X-100) and sonicated briefly. The luciferase activity against each cell lysate was measured using Infinite M200 (Tecan, Männedorf, and Switzerland). In addition, the expression level of the transfected protein was confirmed by Western blotting.

ERK2 = target: T2, ERK2 (Homo sapiens, UniProt P28482); test: In vitro kinase assay; format: biochemical; conditions: purified GST-tagged peptide
T2 construct: purchased Proqinase GmbH (Freiburg, Germany)
T2 sequence (P28482 whole entry): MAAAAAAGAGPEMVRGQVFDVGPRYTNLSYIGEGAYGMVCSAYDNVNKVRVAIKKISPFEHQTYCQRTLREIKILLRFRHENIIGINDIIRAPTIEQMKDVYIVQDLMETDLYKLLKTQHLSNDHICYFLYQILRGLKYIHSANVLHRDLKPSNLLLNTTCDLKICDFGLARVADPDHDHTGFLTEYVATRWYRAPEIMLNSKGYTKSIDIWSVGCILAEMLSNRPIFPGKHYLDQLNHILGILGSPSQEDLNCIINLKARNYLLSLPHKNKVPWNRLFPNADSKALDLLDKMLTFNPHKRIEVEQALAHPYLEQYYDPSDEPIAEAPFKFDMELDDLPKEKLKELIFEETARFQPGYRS
Description: (§2) Purified GST-tagged peptides were used for the in vitro kinase assay using activated recombinant kinase obtained from Proqinase GmbH (Freiburg, Germany). Kinase reactions were induced in reaction buffer (50 mM HEPES-NaOH, pH 7.5, 3 mM MgCl2, 3 mM MnCl2, 3 μM sodium orthobanadate, 1 mM dithiothreitol, 50 μM unlabeled ATP, 5 μCi 32P-γ-ATP) for 1 hour at 30° C. The reaction was stopped by the addition of 5× sample buffer, and proteins were isolated using SDS-PAGE. The gels were stained with Coomassie Brilliant Blue, dried, and developed on X-ray film.

JNK1 = target: T3, JNK1 (Homo sapiens, UniProt P45983); test: In vitro kinase assay; format: biochemical; conditions: purified GST-tagged peptide
T3 construct: purchased Proqinase GmbH (Freiburg, Germany)
T3 sequence (P45983 whole entry): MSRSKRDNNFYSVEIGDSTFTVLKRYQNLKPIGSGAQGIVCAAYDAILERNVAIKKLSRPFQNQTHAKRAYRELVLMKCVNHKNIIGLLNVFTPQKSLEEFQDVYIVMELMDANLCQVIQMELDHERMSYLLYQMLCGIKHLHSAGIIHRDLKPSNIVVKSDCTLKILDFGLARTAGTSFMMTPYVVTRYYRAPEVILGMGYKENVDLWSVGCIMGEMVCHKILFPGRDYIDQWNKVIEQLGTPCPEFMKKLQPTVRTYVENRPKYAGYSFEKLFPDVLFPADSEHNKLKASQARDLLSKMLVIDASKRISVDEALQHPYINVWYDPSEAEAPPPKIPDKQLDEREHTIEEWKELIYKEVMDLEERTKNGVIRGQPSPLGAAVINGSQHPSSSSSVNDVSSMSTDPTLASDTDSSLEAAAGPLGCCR
Description: as §2

p38a = p38a (Homo sapiens, UniProt Q16539); test: In vitro kinase assay; format: biochemical; conditions: purified GST-tagged peptide
p38a, sequence (Q16539 whole entry): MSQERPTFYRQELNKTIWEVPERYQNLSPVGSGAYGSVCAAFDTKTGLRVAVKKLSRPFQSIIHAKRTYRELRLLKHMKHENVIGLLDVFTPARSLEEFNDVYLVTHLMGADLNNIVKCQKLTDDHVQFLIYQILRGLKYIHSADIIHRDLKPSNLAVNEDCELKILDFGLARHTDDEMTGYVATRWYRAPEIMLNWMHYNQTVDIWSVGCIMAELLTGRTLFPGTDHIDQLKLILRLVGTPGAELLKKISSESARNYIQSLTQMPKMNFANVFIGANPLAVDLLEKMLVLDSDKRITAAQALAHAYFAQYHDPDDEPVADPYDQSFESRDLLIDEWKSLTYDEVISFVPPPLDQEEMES
Description: as §2

His6-tagged CNA = test: In vitro peptide competition assay; format: binding; conditions: VIVIT 15-mer and CABIN1-L-1 peptide, molar ratio 1:50 to 1:400
Description: In FIG. 4A, an in vitro peptide competition assay was performed using VIVIT 15-mer and CABIN1-L-1 peptide in a dose-dependent manner. The molar ratio of GST-tagged peptide to competing peptide ranged from 1:50 to 1:400. In FIG. 4B, a mammalian two-hybrid assay was performed using VP16 AD-CNAβ2 and GAL4 DBD-peptide in HEK293T cells treated or not-treated with 1 μM ionomycin. The pM empty vector was used as a negative control. In FIG. 4C, a calcineurin cellular activity assay was performed using Jurkat T cells expressing HA-mCherry-tagged peptides. Jurkat T cells expressing only HA-mCherry were used as negative controls, and cells treated with FK506 were used as positive controls. […] Purified GST was used as a negative control. All experiments were repeated three times, and data were expressed as mean±standard deviation. Statistical differences were determined using one-way analysis of variance. * p<0.05, NS: no statistical significance, NC: negative control.

[1] = tested on: NFAT transcriptional activity; test: NFAT luciferase reporter assay in Jurkat T cells expressing GST-tagged peptides; format: cell-based; conditions: PMA and ionomycin treatment
Description: as §1

Row | Molecule | calcineurin phosphatase activity in cells (calcineurin) | RNA levels of T-cell activation genes by qRT-PCR (Jurkat T cells) | effect of ionomycin treatment on interaction with CNA (CNAβ2; 1 μM ionomycin) | binding to CNA (CNAβ2; GAL4 DBD-tagged peptides, VP16 activation domain-tagged CNA) | phosphorylation by ERK2 (ERK2) | phosphorylation by JNK1 (JNK1) | phosphorylation by p38a (p38a) | competition for CNA binding (His6-tagged CNA) | NFAT transcriptional activity (luciferase activity) [1] | inhibitory effect on NFAT luciferase activity relative to VIVIT peptide [1]
1 | C=CC[C@@H]1/C=C(\C)C[C@H](C)C[C@H](OC)[C@H]2O[C@@](O)(C(=O)C(=O)N3CCCC[C@H]3C(=O)O[C@H](/C(C)=C/[C@@H]3CC[C@@H](O)[C@H](OC)C3)[C@H](C)[C@@H](O)CC1=O)[C@H](C)C[C@@H]2OC [FK506, Tacrolimus, reference compound] | reduced the phosphatase activity of CNA | – | – | – | – | – | – | – | – | –
2 | PEITVTPPTP [CABIN1-L-1-2] | – | reduced RNA levels of these genes more effectively than VIVIT peptides | did not affect the interaction | still bound to CNA | phosphorylate | phosphorylate | phosphorylate | dose-dependently interfered with the interaction between GST-tagged VIVIT peptide and His6-tagged CNA | inhibited luciferase activity compared to the negative control | approximately 4 times
